Laboratory results published in patent US8022051B2, “Composition for protection and improvement of skin, or reinforcing skin barrier function comprising phosphatidylserine” (Doosan Corporation, priority 2004, dated 2011).

Key:
[1] = test system: TPA-induced ear inflammation in CD-1 mouse; experiment: Alleviation of skin damage (inflammatory response) due to TPA in mouse ear; type: in vivo; conditions: TPA 0.03%; applied 30 μl per cm^2 at 45 minutes and 4 hours after induction; phosphatidylserine 0.5%, clofibrate 1 mM, Wy14643 1 mM; FIG. 2
Description: In order to examine a skin damage (inflammatory response)-alleviating effect of the phosphatidylserine of the invention, which damage results from skin inflammation-inducing material, a following experiment was performed in accordance with a method used by Sheu et. al. (The Journal of Investigate Dermatology, 118, pp 94-101, 2002).
First, CD-1 mouse (male & female, 6-8 weeks, Charles River, US) was used as an experimental object. TPA (12-0-tetradecanoylphorbol-13-acetate) 0.03% (wt./vol.; in acetone) solution 10 μl, which was skin inflammation-inducing material, was treated to inner and outer parts of both ears of the experimental animal. The ear was thickened due to TPA and there occurred an inflammatory response. Then, clofibrate (1 mM) and Wy14643 (1 mM) as already-known positive control group, which are agonists of PPAR-a, and the 0.5% phosphatidylserine containing aqueous solution used as the Example 1 as an experimental material were applied to both ears in an amount of 30 μl per cm^2 at times of 45 minutes and 4 hours after the inflammation was induced. After that, the treated parts of the ears were subject to a biopsy, and the biopsy parts were fixed to 4% formaldehyde and then subject to Hematoxylene & Eosin (E&H) staining. The tissue slide stained with H&E was magnified to 100 folds to check the inflammation alleviation.

[2] = test system: skin keratinocyte cell line (HaCaT) and normal human keratinocytes; experiment: Reduction of inflammatory response induced by ultraviolet irradiation in skin keratinocytes (ELISA of TNF-a, IL-6, IL-1alpha); type: cell-based; conditions: 25 mJ/cm^2 UVB; phosphatidylserine 20 and 40 μM, WY-14643 200 μM; 24 hours; FIG. 3
Description: In order to examine an inflammatory response-reducing effect of the phosphatidylserine of the invention in the skin keratinocyte, which response results from the ultraviolet irradiation, a following experiment was performed in accordance with a method disclosed in the literature (Stefan et. al., The Journal of Investigate Dermatology, 117, pp 1430-1436, 2001).
First, the skin keratinocyte cell line (HaCaT, a gift from Yonsei univeritym, Korea) was seeded to a 35 mm^2 of cell culture dish in an amount of 3×10^5 cells/dish and then cultured for a day. Next day, the culture medium was removed and the cell was washed with 1× phosphate-buffered saline (PBS), 700 μl of 1×PBS was added to each of the dishes, it was irradiated 25 mJ/cm^2 UVB and then PBS was removed. […] Next day, the culture medium was collected and then amounts of TNF-a and IL-6 which have been known as inflammatory cytokines were measured with an enzyme-linked immunosorbent assay (ELISA) method. In addition, in order to check that there occurred a similar inflammatory response reducing effect also in the normal human skin keratinocyte, an experiment was performed in the above-mentioned manner using normal human keratinocytes (a gift from Dong-guk University) instead of the HaCaT cell line and then an amount of IL-1alpha secreted to the culture medium was measured with the ELISA.

[3] = test system: normal human keratinocytes; experiment: Differentiation promoting effect in skin keratinocytes (western blot of involucrin and transglutaminase); type: cell-based; conditions: phosphatidylserine 20 and 40 μM, calcium 1.2 mM, clofibrate 200 and 400 μM; 24 hours; FIG. 5
Description: In order to examine a differentiation promoting effect in the skin keratinocytes by the phosphatidylserine of the invention, a following experiment was performed. First, the normal human keratinocytes (a gift from Dong-guk University) cultured in the KSFM (Keratinocyte-SFM; Gibco BRL/Life Technologies, USA) were seeded to the 35 mm^2 cell culture dish in an amount of 1.5×10^5 cells/dish and then cultured for a day. Next day, the culture medium was removed and a new culture medium containing 20 and 40 μM of phosphatidylserine aqueous solution, 1.2 mM calcium aqueous solution and 200 and 400 μM of clofibrate (Sigma, USA) added thereto was added and cultured for 24 hours. Next day, in order to make sure of a differentiation of the keratinocyte, a morphology change of the cell was checked with a phase contrast microscope (Nikon, Japan) and a photograph was taken with a digital camera attached to the microscope. In addition, a western blot was performed to check the protein expression amount of involucrin and transglutaminase, which have been known as a differentiation-marker proteins of the keratinocyte peculiar to the keratin. 500 μl of a lysis buffer having 2% sodium dodecyl sulfate (SDS) added thereto wad added and the cells were collected with a cell scrapper, so that cell lysate only was obtained. […]

[4] = test system: skin keratinocytes (HaCaT); experiment: Protection from ROS (hydrogen peroxide) in skin keratinocytes (MTT assay); type: cell-based; conditions: FIG. 8
Description: In order to measure an effect of protecting the skin from the ROS in the keratinocyte by the phosphatidylserine of the invention, a following experiment was performed.
First, the skin keratinocytes (HaCaT) were seeded to the 24-well plate in an amount of 5×10^4 cells/well. Next day, it was treated with 25 μM phosphatidylserine aqueous solution (Doosan Biotech, Korea) (phosphatidylserine-treated group), 100 μM vitamin C (ascorbic acid-treated group) and 100 μM vitamin E (a-tocopherol-treated group) as the positive control group and then cultured for 24 hours. Next day, it was treated with 1 mM hydrogen peroxide (H2O2) and then cultured for about 1˜1.5 hours. Then, a cell viability was examined with the MTT assay.

[5] = test system: hairless mouse; experiment: Skin barrier function restoration (TEWL) after tape stripping in hairless mice, oral administration; type: in vivo; conditions: 0.8 mg/mouse once a day for three weeks, up to 24 hours, compared to mouse not given phosphatidylserine, FIG. 9
Description: In this example 9, it was examined a difference of water loss restoration rates in a group to which the phosphatidylserine was administrated and a group to which the phosphatidylserine was not administrated, using the hairless mouse, so as to examine an effect of the phosphatidylserine on the skin barrier function restoring reinforcement.
First, a solution in which the phosphatidylserine (DS-PS, Doosan, Korea) was dispersed in a tertiary distilled water in a concentration of 400 mg/100 ml was used as a test material. It was prepared 10 hairless induced mice which were […] (Japan SLC Inc., Shizuoka, Japan). The solution was orally administrated to 5 mice of them in a dosage of 0.8 mg phosphatidylserine/mouse once a day and the tertiary distilled water was orally administrated to the other 5 mice. The medication period was three weeks. After that, it was measured a water evaporation loss for both sides of the backs of the hairless mice using a TEWL apparatus (TEWAMETER, TW210, Germany) (normal skin: about 10±2 g/hm^2). A Scotch tape was attached to the same positions and then cleared. […] After that, it was measured the water evaporation losses as time went by (i.e., before the injury, immediately after the injury, after 6 hours, after 9 hours and after 24 hours) to check the restoration rate of the skin barrier.

Substance: phosphatidylserine
- inflammation alleviation (H&E stained ear tissue) [1]: inflammation was alleviated
- inflammatory response increased due to the ultraviolet irradiation (TNF-a, IL-6, IL-1alpha amounts) [2]: considerably alleviated
- protein expression of involucrin and transglutaminase [3]: rapidly increased the expressions of the proteins
- protection effect from reactive oxygen species compared with the positive control material ([4]; phosphatidylserine 25 μM versus 100 μM positive controls): same protection effect with a smaller amount
- protection effect from reactive oxygen species (cell viability, MTT) ([4]; phosphatidylserine 25 μM, vitamin C 100 μM, vitamin E 100 μM, 24 hours, then 1 mM H2O2 about 1-1.5 hours): exhibited the protection effect
- restoration rate of the skin barrier function (TEWL) [5]: higher restoration rate
